Changes are numbered by the printed parent chain.
Key:
Assay in all cases: Spectrophotometric phenol oxidase assay without H2O2 at pH 7.0 and 60 °C, initial rates fitted to the Michaelis-Menten equation.
Format in all cases: biochemical
Conditions in all cases: read-out: Phenol oxidase K m; n = 3
T188F = biological target: T1, T188F (Mycothermus thermophilus, UniProt M4GGR5, T207F)
T1 construct: recombinant, pET-28-TEV-CATPO; contains heme b; Rz 0.8
T1 sequence (M4GGR5 20-717 T207F): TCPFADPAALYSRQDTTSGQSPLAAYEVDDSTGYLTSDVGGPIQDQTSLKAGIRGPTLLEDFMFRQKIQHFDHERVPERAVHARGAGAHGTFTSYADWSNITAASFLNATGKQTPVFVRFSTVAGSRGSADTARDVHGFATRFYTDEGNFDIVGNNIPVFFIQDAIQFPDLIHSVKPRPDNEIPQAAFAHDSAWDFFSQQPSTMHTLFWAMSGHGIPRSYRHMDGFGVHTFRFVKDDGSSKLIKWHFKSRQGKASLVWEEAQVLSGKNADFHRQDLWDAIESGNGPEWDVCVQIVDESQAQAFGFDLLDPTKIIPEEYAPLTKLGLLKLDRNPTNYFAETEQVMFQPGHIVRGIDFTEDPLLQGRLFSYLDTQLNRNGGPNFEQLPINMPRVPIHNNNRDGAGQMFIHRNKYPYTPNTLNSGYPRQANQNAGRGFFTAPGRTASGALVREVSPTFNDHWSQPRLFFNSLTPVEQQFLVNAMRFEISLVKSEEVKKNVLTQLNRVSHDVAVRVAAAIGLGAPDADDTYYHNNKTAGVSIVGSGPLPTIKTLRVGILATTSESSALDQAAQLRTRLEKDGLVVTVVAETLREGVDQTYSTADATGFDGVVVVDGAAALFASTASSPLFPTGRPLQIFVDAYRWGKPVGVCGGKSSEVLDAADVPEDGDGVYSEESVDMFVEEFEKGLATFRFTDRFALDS
Method: (§1) All inhibition assays were performed in triplicate.

T188D = biological target: T2, T188D (Mycothermus thermophilus, UniProt M4GGR5, T207D)
T2 construct: recombinant, pET-28-TEV-CATPO; contains heme b; Rz 0.5
T2 sequence (M4GGR5 20-717 T207D): T1 sequence (M4GGR5 20-717 T207F) with F188D
Method: as §1

E484A = biological target: T3, E484A (Mycothermus thermophilus, UniProt M4GGR5, E503A)
T3 construct: recombinant, pET-28-TEV-CATPO; contains heme b; Rz 0.8
T3 sequence (M4GGR5 20-717 E503A): T1 sequence (M4GGR5 20-717 T207F) with F188T, E484A
Method: as §1

T188I = biological target: T4, T188I (Mycothermus thermophilus, UniProt M4GGR5, T207I)
T4 construct: recombinant, pET-28-TEV-CATPO; contains heme b; Rz 0.4
T4 sequence (M4GGR5 20-717 T207I): T1 sequence (M4GGR5 20-717 T207F) with F188I
Method: as §1

SMILES: Oc1cccc(O)c1O [Pyrogallol, pyrogallol]
- K m (T188F): 37 ± 0.5 mM
- K m (T188D): 41 ± 1 mM
- K m (E484A): 36 ± 0.7 mM
- K m (T188I): 38 ± 0.5 mM

Source: publication PMC10836395, “Investigation of how gate residues in the main channel affect the catalytic activity of Scytalidium thermophilum catalase” (Acta Crystallographica. Section D, Structural Biology, 2024)
